The text below walks through data of US9670203B2 (BeiGene, LTD., priority 2013, dated 2017).

SMILES strings stand for the structures. Like-named read-outs stand apart in the source and are kept apart here.

One assay deals with p61-A375. Put plainly: Anti-proliferative activity EC50 assay (CellTiter-Glo) in p61-A375. The format is cell-based. To be noted: 72 h; 3-day exposure; read-out: Cell Proliferation EC50 (nM) p61-A375. On the procedure:
(§1) To express p61 in mammalian cells, cDNA encoding the p61 (Poulikakos et al., Nature. 2011 Nov. 23; 480(7377):387-90) was synthesized by Genscript and cloned into pLVX-IRES-Puro vector (Clontech). The cDNA was a modified form of p61 in which sequencing encoding the flag-epitope had been inserted to the C-terminus, resulting in the expression of flag-tagged forms of protein. A375 cells were stably transfected with the Flag-p61 expressing plasmid and selected with DMEM containing […] puromycin (Invitrogen). Cells were cloned by limiting dilution in a 96-wells plate and the clones screened by western blot analysis using a monoclonal antibody directed against the flag-epitope.
The growth-inhibitory activity of compounds in A375 and p61-A375, was determined using CellTiter-Glo luminescent cell viability assay (Promega). The 2,000 cells were seeded per well of a 96-well plate to ensure logarithmic growth could occur over the 3 days treatment period. Cells were left to attach for 16 hours, cells were treated in duplicate with a 10-point dilution series. Following a 3-day exposure to compounds disclosed herein, a volume of CellTiter-Glo reagent equal to the volume of cell culture medium present in each well was added. Mixture was mixed on an orbital shaker for 2 minutes to allow cell lysis, followed by 10 minutes incubation at room temperature to allow stabilization of luminescent signal, which corresponded to quantitation of ATP and thus the quantitation of metabolically active cells. Luminescent signal was measured using Pherastar FS reader (BMG Labtech).
EC50 values for growth inhibition were calculated by fitting dose-dependent data to the four-parameter logistic model using GraphPad Prism software.

A further assay deals with wild type B-Raf (Homo sapiens (Human), UniProt P15056). Put plainly: WT B-Raf IC50 assay, time-resolved fluorescence energy transfer. The format is biochemical. Here is the method:
The IC50 for each compound was calculated by non linear regression by Graphpad Prism software.

A further assay concerns A375. Put plainly: Anti-proliferative activity EC50 assay (CellTiter-Glo) in A375. Type of assay: cell-based. To be noted: Homo sapiens, A-375, 72 h; 3-day exposure; read-out: Cell Proliferation EC50 (nM) A375. Summed up:
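CellTiter-Glo luminescence (ATP) after 2,000 cells/well attached 16 h, then 3-day exposure to a 10-point dilution series in duplicate. EC50 from four-parameter logistic fit of dose-response data.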

A further assay has as its target B-Raf (V600E) (Homo sapiens (Human), UniProt P15056, V600E). Put plainly: Raf IC50 assay, time-resolved fluorescence energy transfer, B-Raf (V600E). The format is biochemical. To be noted: 0.1 mM ATP; read-out: IC50 (nM) B_Raf^V600E.
Another assay concerns p61-A375 (pERK). Put plainly: ERK phosphorylation inhibition IC50 assay in p61-A375. The format is cell-based. To be noted: 1 hour compound treatment. Here is the method: as §1
(§2) Growth medium was then replaced with 100 μL of serum free DMEM, cells were then treated with a 10-point titration of compounds disclosed herein. After 1 hour compound treatment, 50 μL of lysis buffer (Cisbio) were added to each well and incubated at room temperature with shaking for 30 minutes. A total of 16 μL of cell lysate from each well of a 96-well plate was transferred to a 384-well small volume white plate. Lysate from each well was incubated with 2 μL of Eu^3+-cryptate (donor) labeled anti-ERK antibody (Cisbio) and 2 μL of D2 (acceptor) labeled anti-phospho-ERK antibody (Cisbio) for 2 hours at room temperature. When donor and acceptor are in close proximity, excitation of the donor with laser triggers a Fluorescence Resonance Energy Transfer (FRET) towards the acceptor, which in turn fluoresces at 655 nm wavelength. Fluorescence values were measured using a BMG reader.
(§3) IC50 values for ERK inhibition were calculated by fitting dose-dependent data to the four-parameter logistic model using GraphPad Prism software.

In the next assay the test system is HeLa (pERK). Put plainly: ERK phosphorylation inhibition IC50 assay in HeLa. Type of assay: cell-based. As to conditions: Homo sapiens, 1 hour compound treatment. On the procedure: as §2, §3
In another assay the target is C-Raf (Y340D/Y341D) (Homo sapiens (Human), UniProt P04049, Y340D/Y341D). Nature of the assay: Raf IC50 assay, time-resolved fluorescence energy transfer, C-Raf (Y340D/Y341D). The format is biochemical. To be noted: 0.1 mM ATP.
The test system of the next assay is Calu-6 (pERK). Put plainly: ERK phosphorylation inhibition IC50 assay in Calu-6. The format is cell-based. As to conditions: Homo sapiens, 1 hour compound treatment. On the procedure:
as §2, §3

Where [1] appears, read: 2.5 mM ATP, read-out: IC50 (nM) B-Raf^WT 2.5 mM ATP.
[2] abbreviates: Km ATP (2.9 μM ATP), read-out: IC50 (nM) B-Raf^WT Km ATP.

wild type B-Raf, sequence (P15056 whole entry): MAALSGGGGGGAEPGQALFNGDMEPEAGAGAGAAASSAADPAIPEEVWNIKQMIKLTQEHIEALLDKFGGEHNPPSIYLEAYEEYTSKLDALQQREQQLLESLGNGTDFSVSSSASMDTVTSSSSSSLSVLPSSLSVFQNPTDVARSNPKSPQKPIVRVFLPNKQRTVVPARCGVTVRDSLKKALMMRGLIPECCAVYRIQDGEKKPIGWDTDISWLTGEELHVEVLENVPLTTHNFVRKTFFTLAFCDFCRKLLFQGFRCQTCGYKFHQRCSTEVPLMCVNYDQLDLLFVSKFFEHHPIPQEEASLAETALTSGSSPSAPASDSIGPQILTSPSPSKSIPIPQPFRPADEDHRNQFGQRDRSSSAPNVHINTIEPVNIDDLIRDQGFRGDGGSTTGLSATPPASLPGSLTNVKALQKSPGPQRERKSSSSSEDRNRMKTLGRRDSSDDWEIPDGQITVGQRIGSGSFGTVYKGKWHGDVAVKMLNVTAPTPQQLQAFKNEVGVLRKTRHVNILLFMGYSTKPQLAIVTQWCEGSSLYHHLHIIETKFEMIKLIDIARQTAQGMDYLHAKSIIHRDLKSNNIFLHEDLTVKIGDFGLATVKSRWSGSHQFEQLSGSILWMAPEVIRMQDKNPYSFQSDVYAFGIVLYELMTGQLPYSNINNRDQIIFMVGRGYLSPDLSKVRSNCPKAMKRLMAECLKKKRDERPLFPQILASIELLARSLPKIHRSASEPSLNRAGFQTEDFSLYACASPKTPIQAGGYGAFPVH
B-Raf (V600E), sequence (P15056 whole entry V600E): as the sequence (P15056 whole entry) above, with V600E counted along it
C-Raf (Y340D/Y341D), sequence (P04049 whole entry Y340D/Y341D): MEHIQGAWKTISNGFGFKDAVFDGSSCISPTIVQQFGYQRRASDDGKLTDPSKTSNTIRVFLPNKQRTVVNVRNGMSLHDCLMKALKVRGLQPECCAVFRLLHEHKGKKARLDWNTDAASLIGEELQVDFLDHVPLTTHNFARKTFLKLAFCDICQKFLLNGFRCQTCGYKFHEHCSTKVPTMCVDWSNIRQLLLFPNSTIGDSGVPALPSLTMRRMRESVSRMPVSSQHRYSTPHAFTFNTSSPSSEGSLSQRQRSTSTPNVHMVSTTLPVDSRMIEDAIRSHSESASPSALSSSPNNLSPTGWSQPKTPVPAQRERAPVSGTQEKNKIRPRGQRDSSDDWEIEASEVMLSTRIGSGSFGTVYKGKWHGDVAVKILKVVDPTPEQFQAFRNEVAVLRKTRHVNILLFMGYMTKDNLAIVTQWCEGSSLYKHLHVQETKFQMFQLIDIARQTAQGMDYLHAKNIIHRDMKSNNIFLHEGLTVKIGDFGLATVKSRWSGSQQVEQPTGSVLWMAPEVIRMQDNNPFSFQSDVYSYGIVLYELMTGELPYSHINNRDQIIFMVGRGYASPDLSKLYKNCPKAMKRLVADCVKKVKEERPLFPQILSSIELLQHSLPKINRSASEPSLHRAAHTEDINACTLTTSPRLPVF

For `O=C1CCc2c(Oc3ccc4c(c3)[C@H]3[C@H](NC(=O)Nc5ccc(F)c(F)c5)[C@H]3O4)ccnc2N1` [Compound 1.45], the results for the EC50 in the assay with p61-A375 and with A375 were 645 nM and 32 nM, respectively. The IC50 on wild type B-Raf (setting [1]) was 6.7 nM; on wild type B-Raf (setting [2]) it was 2.7 nM; at B-Raf (V600E) it was 1.1 nM; in the assay with p61-A375 (pERK), 325 nM; with HeLa (pERK), 265 nM; on C-Raf (Y340D/Y341D), 0.3 nM. Besides, in the assay with Calu-6 (pERK), the concentration for half-maximal inhibition (IC50) is 84 nM.

For `O=C1CCc2c(Oc3ccc4c(c3)[C@H]3[C@H](NC(=O)Nc5cc(F)c(F)cc5F)[C@H]3O4)ccnc2N1` [Compound 1.49], the EC50 was 639 nM with p61-A375 and 17 nM in the assay with A375. Moreover, the IC50 on wild type B-Raf (setting [1]) was 7.9 nM; at wild type B-Raf (setting [2]), 2.5 nM; at B-Raf (V600E) it was 1.2 nM; with p61-A375 (pERK) it was 153 nM; with HeLa (pERK) it was 498 nM; against C-Raf (Y340D/Y341D) it was 0.19 nM. This molecule also returned an IC50 in the assay with Calu-6 (pERK) of 112 nM.
